What all share (format): physicochemical
Series [1] is described as follows: Spectra of Ni-dye complexes in solution. Conditions: 3:1 dioxane:water, pH 7, excess nickel ion. The source says:
The receiver was removed from the dye solution, washed in distilled water, placed in a pH 7.0 buffer solution and dried. Transmission spectra obtained on each sample of the mordanted dyes were normalized by computer to a density of 1.0. The characteristic wavelength of the dye, λ1/2 in nm, is the mean of the wavelength limits of the absorption envelope at half the maximum density. The HBW ("half band width") in nm is the range or distance between those limits. The dye solution spectrum in 3:1 dioxane:water at pH 7 in the presence of excess nickel ion is also given.

Series [2] can be described thus: Transmission spectra of Ni-dye complexes on mordanted receiving element (Example 1). Conditions: nickel sulfate/gelatin + poly(4-vinylpyridine)/gelatin mordant receiver; pH 7.0 buffer; normalized to density 1.0.
A short description of series [3]: Light stability (percent fade after HID xenon arc irradiation). Conditions: 10 days HID 6000 W xenon arc, 50,000 lux, Wratten 2B filter, approx. 38° C., low humidity, pH 7. An excerpt:
An alternative receiving element was used with the premetallized dye-complexes. It comprised a poly(ethylene terephthalate) film support having thereon a layer of gelatin (1.1 g/m^2) and a mordant layer of poly(styrene-co-1-vinylimidazole-co-3-benzyl-1-vinylimidazolium chloride (50:40:10) (4.5 g/m^2) and gelatin (2.2 g/m^2).
The above receiving elements at pH 7 were then subjected to 10 days irradiation by a high intensity daylight (HID), 6000 W Xenon arc lamp, the sample receiving 50,000 lux through a Wratten 2B (ultraviolet) filter at approximately 38° C. and low humidity. The percent fade represents the loss in density at λmax after irradiation.

The nature of series [4]: Dye diffusion, solution test. Conditions: pH 13.4, 0.0025 M dye. The source says:
The released dyes in Table I were also subjected to the conditions of two different dye diffusion tests. One, the "solution test" involved dissolving the dye in a viscous composition and transferring it through a receiving element which contains an opaque and reflecting layer in addition to the mordant layer. The other, a "gel pad test" involved imbibing the dye from solution into a thick gelatin layer, and then transferring it by direct lamination to the same receiving element which had been preswollen by soaking 5 minutes in a solution of […].
A transparent poly(ethylene terephthalate) film support coated with
(3) an overcoat layer of gelatin (4.3).
The viscous composition was prepared from 46.2 g potassium hydroxide and 54 g carboxymethylcellulose dissolved in 1200 ml water. […] Measurement of the rate of dye diffusion was commenced at the point at which half of the laminate had passed through the rollers. The appearance of dye on the mordant was measured at λmax as diffuse reflection density vs. time. The reflection density was converted to transmission density by computer with the aid of a mathematical relation derived from a previous calibration. A plot of transmission density, which is proportional to concentration vs. time, was derived; and the value of t-1/2 of dye transfer, the time in seconds required to obtain one-half of the maximum transmission density, calculated.

The nature of series [5]: Extinction in solution with Ni2+ (synthesis examples). Conditions: 3:1 dioxane-pH 6 buffer + Ni^2+. The protocol: To a solution of 5.5 g (12.1 mmol) Compound E in 200 ml tetrahydrofuran, 100 ml pyridine and 4.8 g (37.2 mmol) N,N-diisopropylethylamine was added 3.0 g (3.17 mmol) 3,6-bis(1-p-t-butylphenylethyl)-2,5-bis(N-n-dodecylchloroformamidomethyl)benzoquinone (see U.S. Pat. No. 4,204,870, Col. 31). After stirring for 1 hour, an additional 2.5 g (2.64 mmol) of the acid chloride is added and the reaction stirred 28 hours at room temperature. The crude reaction mixture was concentrated to ca. 100 ml in vacuo at 40° C. and the residue was partitioned between ethyl acetate and 3 N HCl. The layers were separated, the organic phase washed with 3 N HCl (until washings were acidic), water and saturated sodium chloride solution. After drying (MgSO4) the organic phase was evaporated in vacuo and the residue recrystallized twice from 350-400 ml ethanol. Yield 7.5 g (72 percent) of yellow solid: ε^550 =13.0×10^4 (3:1 dioxane-pH 6 buffer+excess Ni^2+).
A solution of 5.0 g (31.4 mmol) quinoline-5,8-quinone [T. Urbanski and S. Krzyzanowski, Roczniki Chem., 27, 390 (1953); Chem. Abstr., 49, 1041b (1955)] in 50 ml ethyl alcohol and 100 ml tetrahydrofuran was chilled to <5° C. Concentrated HCl (1 ml) and a cold slurry of 10.0 g (31.8 mmol) 3-chloro-5-(m-hydroxyphenylsulfamoyl)-7-pyridylhydrazine in 100 ml ethyl alcohol/0.5 ml concentrated HCl were added in that order. […]

Structures are written as SMILES.

With `O=S(=O)(Nc1cccc(O)c1)c1cnc(N=Nc2ccc(O)c3cccnc23)c(Cl)c1` [Compound E, 8-[3-Chloro-5-(m-hydroxyphenylsulfamoyl)-2-pyridylazo]-5-quinolinol], the “Solution λ1/2 of Ni-dye complex” value in series [1] is on record as 544 nm. For the same compound, the “Solution HBW of Ni-dye complex” value in series [1] (half band width) was 65 nm. In series [2], the “Mordant HBW of Ni-dye complex” value is 70 nm and the “Mordant λ1/2 of Ni-dye complex” value was 550 nm. In addition, in series [3], the “% Fade (loss in density at λmax)” value came to 1%. The “Dye diffusion t1/2, Soln.” value in series [4] is 39 s. Besides, the “ε^550” value in series [5] is listed as 6.6×10^4.

The values are drawn from patent publication US4436799A, “Photographic products and processes employing novel nondiffusible magenta dye-releasing compounds and precursors thereof” (priority 1983, dated 1984).
